Measured values: ChEMBL document CHEMBL5154800, “Identification of N, C-capped di- and tripeptides as selective immunoproteasome inhibitors” (Eur J Med Chem, 2022)
Calls of active or inactive are those of the source. The calls are words filed in the database; no cut-off is given here.

system: HCT-116; test: Antiproliferative activity against human HCT-116 cells assessed as growth inhibition measured after 72 hrs by CCK-8 assay; assay type: functional, cell-based; details: HCT-116, 72 h

Going from COc1ccc(C[C@H](NC(=O)[C@H](C)NC(=O)CN2CCOCC2)C(=O)NC(Cc2ccccc2)C(=O)[C@@]2(C)CO2)cc1 (stereo not given in full) to Cc1ccc(CNC(=O)[C@H](Cc2ccccc2)NC(=O)[C@H](CCC(=O)NC(C)(C)C)NC(=O)[C@H](CNC(=O)CCl)NC(=O)c2cc(C)on2)cc1, the IC50 falls from 730 nM to 460 nM (1.6-fold).

With Cc1ccc(CNC(=O)[C@H](Cc2ccccc2)NC(=O)[C@H](CCC(=O)NC(C)(C)C)NC(=O)[C@H](CNC(=O)CCl)NS(=O)(=O)c2ccc(C)cc2)cc1 the IC50 was 1090 nM.

system: THP-1; test: Antiinflammatory activity against LPS-stimulated human THP-1 cells assessed inhibition of TNF-alpha release at 40 uM measured by ELISA; assay type: functional, cell-based; details: not given

COc1ccc(C[C@H](NC(=O)[C@H](C)NC(=O)CN2CCOCC2)C(=O)NC(Cc2ccccc2)C(=O)[C@@]2(C)CO2)cc1 (stereo not given in full) was tested, and the Activity was “Active”.

system: MCF7; test: Antiproliferative activity against human MCF7 cells assessed as growth inhibition at 0.2 uM measured after 72 hrs by MTT assay; assay type: functional; details: read-out: GI

COc1ccc(C[C@H](NC(=O)[C@H](C)NC(=O)CN2CCOCC2)C(=O)NC(Cc2ccccc2)C(=O)[C@@]2(C)CO2)cc1 (stereo not given in full) and Cc1ccc(CNC(=O)[C@H](Cc2ccccc2)NC(=O)[C@H](CCC(=O)NC(C)(C)C)NC(=O)[C@H](CNC(=O)CCl)NC(=O)c2cc(C)on2)cc1 cannot be ordered by inhibition of growth at 0.2 µM: less than 20% for the first, less than 20% for the second.

Cc1ccc(CNC(=O)[C@H](Cc2ccccc2)NC(=O)[C@H](CCC(=O)NC(C)(C)C)NC(=O)[C@H](CNC(=O)CCl)NS(=O)(=O)c2ccc(C)cc2)cc1 showed an inhibition of growth at 0.2 µM of less than 20%.

system: THP-1; test: Antiinflammatory activity against LPS-stimulated human THP-1 cells assessed inhibition of IL-6 release at 40 uM measured by ELISA; assay type: functional, cell-based; details: not given

In the case of COc1ccc(C[C@H](NC(=O)[C@H](C)NC(=O)CN2CCOCC2)C(=O)NC(Cc2ccccc2)C(=O)[C@@]2(C)CO2)cc1 (stereo not given in full), the Activity is reported as “Active”.

system: Pfeiffer; test: Antiproliferative activity against human Pfeiffer cells assessed as growth inhibition at 0.2 uM measured after 72 hrs by MTT assay; assay type: functional; details: read-out: GI

First: COc1ccc(C[C@H](NC(=O)[C@H](C)NC(=O)CN2CCOCC2)C(=O)NC(Cc2ccccc2)C(=O)[C@@]2(C)CO2)cc1 (stereo not given in full)
Second: Cc1ccc(CNC(=O)[C@H](Cc2ccccc2)NC(=O)[C@H](CCC(=O)NC(C)(C)C)NC(=O)[C@H](CNC(=O)CCl)NC(=O)c2cc(C)on2)cc1
The inhibition of growth at 0.2 µM of the first is higher: 36% for the first, 30% for the second.

In the case of Cc1ccc(CNC(=O)[C@H](Cc2ccccc2)NC(=O)[C@H](CCC(=O)NC(C)(C)C)NC(=O)[C@H](CNC(=O)CCl)NS(=O)(=O)c2ccc(C)cc2)cc1, the inhibition of growth at 0.2 µM is reported as 26%.

system: DOHH-2; test: Antiproliferative activity against human DOHH-2 cells assessed as growth inhibition at 0.2 uM measured after 72 hrs by MTT assay; assay type: functional; details: read-out: GI

First: COc1ccc(C[C@H](NC(=O)[C@H](C)NC(=O)CN2CCOCC2)C(=O)NC(Cc2ccccc2)C(=O)[C@@]2(C)CO2)cc1 (stereo not given in full)
Second: Cc1ccc(CNC(=O)[C@H](Cc2ccccc2)NC(=O)[C@H](CCC(=O)NC(C)(C)C)NC(=O)[C@H](CNC(=O)CCl)NC(=O)c2cc(C)on2)cc1
The inhibition of growth at 0.2 µM of the first is higher: 56% for the first, less than 20% for the second.

With Cc1ccc(CNC(=O)[C@H](Cc2ccccc2)NC(=O)[C@H](CCC(=O)NC(C)(C)C)NC(=O)[C@H](CNC(=O)CCl)NS(=O)(=O)c2ccc(C)cc2)cc1 the inhibition of growth at 0.2 µM was 34%.

system: HT-29; test: Antiproliferative activity against human HT-29 cells assessed as growth inhibition at 0.2 uM measured after 72 hrs by MTT assay; assay type: functional; details: read-out: GI

COc1ccc(C[C@H](NC(=O)[C@H](C)NC(=O)CN2CCOCC2)C(=O)NC(Cc2ccccc2)C(=O)[C@@]2(C)CO2)cc1 (stereo not given in full) and Cc1ccc(CNC(=O)[C@H](Cc2ccccc2)NC(=O)[C@H](CCC(=O)NC(C)(C)C)NC(=O)[C@H](CNC(=O)CCl)NC(=O)c2cc(C)on2)cc1 are the same in inhibition of growth at 0.2 µM: 54% for the first, 54% for the second.

Cc1ccc(CNC(=O)[C@H](Cc2ccccc2)NC(=O)[C@H](CCC(=O)NC(C)(C)C)NC(=O)[C@H](CNC(=O)CCl)NS(=O)(=O)c2ccc(C)cc2)cc1 gave an inhibition of growth at 0.2 µM of 59%.

system: HCT-116; test: Antiproliferative activity against human HCT-116 cells assessed as growth inhibition at 0.2 uM measured after 72 hrs by MTT assay; assay type: functional; details: read-out: GI

Going from COc1ccc(C[C@H](NC(=O)[C@H](C)NC(=O)CN2CCOCC2)C(=O)NC(Cc2ccccc2)C(=O)[C@@]2(C)CO2)cc1 (stereo not given in full) to Cc1ccc(CNC(=O)[C@H](Cc2ccccc2)NC(=O)[C@H](CCC(=O)NC(C)(C)C)NC(=O)[C@H](CNC(=O)CCl)NC(=O)c2cc(C)on2)cc1, the inhibition of growth at 0.2 µM rises from 75% to 83%.

With Cc1ccc(CNC(=O)[C@H](Cc2ccccc2)NC(=O)[C@H](CCC(=O)NC(C)(C)C)NC(=O)[C@H](CNC(=O)CCl)NS(=O)(=O)c2ccc(C)cc2)cc1 the inhibition of growth at 0.2 µM was 85%.
